Laboratory results published in US20070191330A1, “Polyhydroxylated aromatic compounds for the treatment of amyloidosis and alpha-synuclein fibril diseases” (Proteotech, Inc., priority 1999, published 2007).
Where two headings read alike, the source gives them in different places.

Assays:
Assay type in all cases: biochemical
[1] = target: T1, Alzheimer's Aβ 1-42 amyloid fibrils (Homo sapiens, UniProt P05067); assay: Disassembly/disruption of pre-formed Aβ 1-42 fibrils, Thioflavin T fluorometry; conditions: for inhibition at 100 µg/mL: read-out: Fluorescence inhibition, %, at the Aβ 1-42:compound w/w ratio 1:1
T1 construct: 1 mg of Aβ 1-42 (Bachem Inc., Torrance, Calif., USA) was dissolved; purchased Bachem Inc., Torrance, Calif., USA
T1 sequence (P05067 672-713): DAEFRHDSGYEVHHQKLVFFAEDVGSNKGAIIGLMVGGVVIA
Description: For the first study, 1 mg of Aβ 1-42 (Bachem Inc., Torrance, Calif., USA) was dissolved in 1.0 ml of double distilled water (1 mg/ml solution). 25 μM of Aβ 1-42 was then incubated overnight (˜18 hours) at 37° C., in the absence or presence of 100 μg/ml of the following compounds: 1) EDTA (Sigma Chemical Company, St. Louis, Mo., USA), 2) myricetin (Acros, Somerville, N.J., USA), 3) exifone (Acros) 4) pyrogallol (Sigma), 5) tannic acid (Acros), 6) pyrocatechol (Acros), 7) quercetin (Sigma), 8) ellagic acid (Acros), 9) 1,2,4-benzenetriol (Acros), 10) 5-hydroxydopamine (Acros), 11) gallamide hydrate (Acros), 12) gallic acid (Sigma), 13) ethyl gallate (Acros), 14) quinic acid (Acros), 15) propyl gallate (Sigma), and 16) phloroglucide (Acros), each in the presence of 150 mM Tris HCl, 10 mM NaCl (pH 7.0) with 0.02% sodium azide. In this study, the A 1-42:compound weight ratio was 1:1. […]
Thioflavin T is known to bind to fibrillar amyloid proteins, and an increase in fluorescence correlates with an increase in amyloid fibril formation, whereas a decrease in fluorescence correlates with a decrease in amyloid fibrils due to disassembly and/or disruption. The Alzheimer's Aβ protein (1-42) when placed in solution, such as distilled water, tends to spontaneously form amyloid fibrils. Using this sensitive assay, any decreases or increases in fluorescence was previously shown to correlate with a decrease or increase in the amount of amyloid fibrils (see the documents cited above), allowing one to identify and quantitate the extent of potential inhibitors and/or enhancers of Alzheimer's Aβ 1-42 amyloid fibrils.
To assess the effects of each compound on potential disassembly/disruption of preformed Aβ 1-42 fibrils, 50 μl of Aβ 1-42 with or without test compounds (described above) were added to 1.2 ml of 100 μM Thioflavin T (Sigma) in 50 mM NaH2PO4 (pH 6.0) for fluorometry readings. […] Fluorescence emission at 482 nm was measured on a Turner instrument-model 450 fluorometer at an excitation wavelength of 450 nm. For each determination, the fluorometer was calibrated by zeroing in the presence of the Thioflavin T reagent alone, and by setting the 50 ng/ml riboflavin (Sigma Chemical Co., St. Louis, Mo.) in the Thioflavin T reagent to 1800 fluorescence units. All fluorescence determinations were based on these references and any fluorescence given off by any of the compounds in the presence of the Thioflavin T reagent was always subtracted from all pertinent readings.
For all fibrillogenesis studies utilizing Thioflavin T fluorometry, as disclosed herein, comparisons of amyloid protein in the presence or absence of test compounds were based on paired Student's t tests with data shown as the mean of triplicate measurements±standard deviation.

human amylin fibrils = target: T2, human amylin fibrils (Homo sapiens, UniProt P10997); assay: Congo red staining of amylin fibrils on slides; conditions: overnight incubation of amylin with compound, compared with amylin alone
T2 construct: This amyloid protein involved consists of a 37 amino acid protein known as islet amyloid polypeptide or amylin; purchased Bachem
T2 sequence (P10997 34-70 limits assumed): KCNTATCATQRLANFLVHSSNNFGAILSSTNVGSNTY
Description: Following Thioflavin T fluorometry readings as described in Example 1, 5 μl aliquots of amylin only, amylin+myricetin, amylin+exifone, and amylin+tannic acid were also taken, allowed to air dry overnight on gelatin-coated slides, and stained with Congo red as previously described (Castillo et al., Diabetes 47:612-620, 1998).

Aβ 1-40 amyloid fibrils = target: T3, Aβ 1-40 amyloid fibrils (Homo sapiens, UniProt P05067); assay: Dose-dependent disaggregation of fibrillized Aβ 1-40, Congo red-Aβ spectrophotometric assay; conditions: w/w 1:1, 100 μg/ml compound, 25 μM Aβ 1-40, overnight (~18 hours) at 37° C.
T3 construct: 1 mg of Aβ 1-40 (Bachem Inc., Torrance, Calif., USA; Lot # T-20824) was dissolved; purchased Bachem Inc., Torrance, Calif., USA
T3 sequence (P05067 672-711): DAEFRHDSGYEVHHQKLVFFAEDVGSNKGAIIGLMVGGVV
Description: In this study, a Congo red-Aβ spectrophotometric assay (Klunk et al., Anal. Biochem. 266:66-76, 1999) was modified to determine the effectiveness of polyhydroxylated aromatic compounds on the disaggregation of pre-formed Aβ 1-40 amyloid fibrils. For this assay, 1 mg of Aβ 1-40 (Bachem) was incubated for 4 days in distilled water at 37° C. to spontaneously produce amyloid fibrils. […] Following incubation, 50 μl of 360 μM Congo red (Sigma) in distilled water was then added to 250 μl of each incubation mixture, giving a final Aβ:Congo red molar ratio of 1:3. After 10 minutes, the absorbance at 405 nm (reference wavelength to account for the absorbance of Congo red alone at 540 nm) and 540 nm (sample absorbance where “sample” refers to Aβ alone, test compound alone, or Aβ plus test compound, all in the presence of Congo red) was determined using a Biorad Model 550 ELISA Plate Reader (Biorad, Hercules, Calif., USA). The absorbance at wavelength 405 nm was automatically subtracted by the ELISA plate reader from the absorbance at wavelength 540 nm (difference is referred to as A absorbance)(see Klunk et al. cited above). Therefore, the A absorbance reading at 540 nm was proportional to the amount of aggregated Aβ left in solution (Klunk et al.). […]
In this study, the potential dose-dependent effects of tannic acid and gallic acid on the disaggregation of fibrillized Aβ 1-40 was assessed. […]

[2] = Aβ 1-42:compound w/w 1:1, 100 μg/ml compound, 25 μM Aβ 1-42, overnight (~18 hours) at 37° C., mean of triplicate ± SD

SMILES: Oc1ccccc1O [Pyrocatechol, pyrocatechol]
- inhibition at 100 µg/mL [1, 2]: 77 ± 2.6%

SMILES: Oc1ccc(O)c(O)c1 [1,2,4-Benzenetriol, 1,2,4-benzenetriol]
- inhibition at 100 µg/mL [1, 2]: 71 ± 3.3%

SMILES: O=C(O)CN(CCN(CC(=O)O)CC(=O)O)CC(=O)O [EDTA, reference compound]
- Disassembly/disruption of Aβ 1-42 amyloid fibrils (result in words) ([1]; 100 μg/ml, 25 μM Aβ 1-42, overnight (~18 hours) at 37° C., Thioflavin T fluorometry): no significant disassembly/disruption

SMILES: O=C(c1cc(O)c(O)c(O)c1)c1ccc(O)c(O)c1O [Exifone, exifone]
- Congo red staining of amylin fibrils (red/green birefringence under polarized light) (human amylin fibrils): marked decrease in Congo red staining
- inhibition at 100 µg/mL ([1]; 18 h): 93 ± 1.4%

SMILES: CCCOC(=O)c1cc(O)c(O)c(O)c1 [Propyl gallate, propyl gallate]
- inhibition at 100 µg/mL [1, 2]: 29 ± 2.8%

SMILES: O=C(O)[C@]1(O)C[C@@H](O)[C@@H](O)[C@H](O)C1 [Quinic acid, quinic acid]
- inhibition at 100 µg/mL [1, 2]: 31 ± 9%

SMILES: O=c1c(O)c(-c2cc(O)c(O)c(O)c2)oc2cc(O)cc(O)c12 [Myricetin, myricetin]
- Congo red staining of amylin fibrils (red/green birefringence under polarized light) (human amylin fibrils): marked decrease in Congo red staining
- inhibition at 100 µg/mL ([1]; 18 h): 94 ± 0.9%

SMILES: CCOC(=O)c1cc(O)c(O)c(O)c1 [Ethyl gallate, ethyl gallate]
- inhibition at 100 µg/mL [1, 2]: 49 ± 0.8%

SMILES: NC(=O)c1cc(O)c(O)c(O)c1 [Gallamide trihydrate, gallamide trihydrate]
- inhibition at 100 µg/mL ([1]; 18 h): 65 ± 12.3%

SMILES: O=C(OC[C@H]1O[C@@H](OC(=O)c2cc(O)c(O)c(OC(=O)c3cc(O)c(O)c(O)c3)c2)[C@H](OC(=O)c2cc(O)c(O)c(OC(=O)c3cc(O)c(O)c(O)c3)c2)[C@@H](OC(=O)c2cc(O)c(O)c(OC(=O)c3cc(O)c(O)c(O)c3)c2)[C@@H]1OC(=O)c1cc(O)c(O)c(OC(=O)c2cc(O)c(O)c(O)c2)c1)c1cc(O)c(O)c(OC(=O)c2cc(O)c(O)c(O)c2)c1 [Tannic acid, tannic acid]
- Congo red staining of amylin fibrils (red/green birefringence under polarized light) (human amylin fibrils): marked decrease in Congo red staining
- inhibition at 100 µg/mL ([1]; 18 h): 77 ± 1.3%

SMILES: O=c1oc2c(O)c(O)cc3c(=O)oc4c(O)c(O)cc1c4c23 [Ellagic acid, ellagic acid]
- inhibition at 100 µg/mL [1, 2]: 74 ± 1.4%

SMILES: O=c1c(O)c(-c2ccc(O)c(O)c2)oc2cc(O)cc(O)c12 [Quercetin, quercetin]
- Fluorescence inhibition, %, at the Aβ 1-42:compound w/w ratio 1:1 [1, 2]: 76 ± 0.6%

SMILES: O=C(O)c1cc(O)c(O)c(O)c1 [Gallic acid, gallic acid]
- inhibition at 100 µg/mL [1, 2]: 57 ± 1.9%
- Decrease in absorbance, %, at the Aβ 1-40:compound w/w ratio 1:1 (Aβ 1-40 amyloid fibrils): 32 ± 4.8%

SMILES: NCCc1cc(O)c(O)c(O)c1 [5-Hydroxydopamine, 5-hydroxydopamine]
- inhibition at 100 µg/mL [1, 2]: 70 ± 1.1%

SMILES: Oc1cccc(O)c1O [Pyrogallol, pyrogallol]
- inhibition at 100 µg/mL [1, 2]: 89 ± 6.7%
